Experimental findings from patent US12077503B2, “Substituted cyclic amides and their use as herbicides” (FMC CORPORATION, priority 2015, dated 2024) are described below.

What all share (assay type): in vivo
For one experiment, the system named is rice (Oryra sativa). Nature of the experiment: Test B flooded paddy test. The note with it: Oryza sativa, Flood, 250 g ai/ha; scale of 0 to 100 where 0 is no effect and 100 is complete control; read-out: Rice plant response rating. In outline:
(§1)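 Percent control, visually estimated after 13–15 d in the greenhouse on a 0–100 basis, compares treated pots with untreated ones; compound was put into paddy water 3 cm above the soil when plants had two leaves.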

For experiment [1], the system named is ducksalad (Heteranthera limosa). Nature of the experiment: Test B flooded paddy test. The following applies: Heteranthera limosa, Flood, 250 g ai/ha; scale of 0 to 100 where 0 is no effect and 100 is complete control; read-out: Ducksalad plant response rating. In outline: as §1
Experiment [2] concerns sedge, umbrella (small-flower umbrella sedge, Cyperus difformis). Nature of the experiment: Test B flooded paddy test. The note with it: Cyperus difformis, Flood, 250 g ai/ha; scale of 0 to 100 where 0 is no effect and 100 is complete control; read-out: Sedge, Umbrella plant response rating. The essentials: as §1
Experiment [3] has as its system barnyardgrass (Echinochloa crus-galli). The experiment can be described thus: Test B flooded paddy test. The following applies: Echinochloa crus-galli, Flood, 250 g ai/ha; scale of 0 to 100 where 0 is no effect and 100 is complete control; read-out: Barnyardgrass plant response rating. In outline:
as §1

Experiment [4] relates to ryegrass, Italian (Italian ryegrass, Lolium multiflorum). The experiment can be described thus: Test A preemergence. The following applies: Lolium multiflorum, pre-emergence, 240 h; for pest or weed control at 125 g/ha: 125 g ai/ha, visual rating after approx. 10 d, 0 to 100 scale where 0 is no effect and 100 is complete control; for pest or weed control at 500 g/ha: 500 g ai/ha. The essentials:
(§2)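 Treatment is preemergence as a directed soil spray after planting, or postemergence at the one- to two-leaf stage, with test chemical in a non-phytotoxic solvent mixture plus surfactant. Plants stay in the greenhouse about 10 d before visual injury scoring on a 0 to 100 scale versus untreated controls.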

In experiment [5] the test system is pigweed (Amaranthus retroflexus). The experiment can be described thus: Test A preemergence. The note with it: Amaranthus retroflexus, pre-emergence, 240 h; for pest or weed control at 125 g/ha: 125 g ai/ha, visual rating after approx. 10 d, 0 to 100 scale where 0 is no effect and 100 is complete control; for pest or weed control at 500 g/ha: 500 g ai/ha.
Experiment [6] relates to Kochia (Kochia scoparia). The experiment can be described thus: Test A preemergence. The following applies: Bassia scoparia, pre-emergence, 240 h; for pest or weed control at 125 g/ha: 125 g ai/ha, visual rating after approx. 10 d, 0 to 100 scale where 0 is no effect and 100 is complete control; for pest or weed control at 500 g/ha: 500 g ai/ha. The essentials:
as §2

Experiment [7] has as its system ragweed (common ragweed, Ambrosia elatior). Nature of the experiment: Test A preemergence. The following applies: Ambrosia artemisiifolia, pre-emergence, 240 h; for pest or weed control at 125 g/ha: 125 g ai/ha, visual rating after approx. 10 d, 0 to 100 scale where 0 is no effect and 100 is complete control; for pest or weed control at 500 g/ha: 500 g ai/ha. The essentials: as §2

Experiment [8] has as its system giant foxtail (Setaria faberii). The experiment can be described thus: Test A preemergence. The note with it: Setaria faberi, pre-emergence, 240 h; for pest or weed control at 125 g/ha: 125 g ai/ha, visual rating after approx. 10 d, 0 to 100 scale where 0 is no effect and 100 is complete control; for pest or weed control at 500 g/ha: 500 g ai/ha. In outline: as §2
Experiment [9] has as its system barnyardgrass (Echinochloa crus-galli). The experiment can be described thus: Test A preemergence. The following applies: Echinochloa crus-galli, pre-emergence, 240 h; for pest or weed control at 125 g/ha: 125 g ai/ha, visual rating after approx. 10 d, 0 to 100 scale where 0 is no effect and 100 is complete control; for pest or weed control at 500 g/ha: 500 g ai/ha. The essentials:
as §2

The test system of experiment [10] is Galium (catchweed bedstraw, Galium aparine). The experiment can be described thus: Test A postemergence. The following applies: Galium, post-emergence, 240 h, 125 g ai/ha, postemergence; visual injury after approximately 10 d; 0 to 100 scale (0 no effect, 100 complete control); read-out: Plant response rating, Galium. The essentials: as §2
The subject of experiment [11] is wheat (Triticum aestivum). Nature of the experiment: Test A postemergence. The following applies: Triticum aestivum, post-emergence, 240 h, 125 g ai/ha, postemergence; visual injury after approximately 10 d; 0 to 100 scale (0 no effect, 100 complete control); read-out: Plant response rating, Wheat. In outline:
as §2

The subject of experiment [12] is pigweed (Amaranthus retroflexus). The experiment can be described thus: Test A postemergence. The note with it: Amaranthus retroflexus, post-emergence, 240 h, 125 g ai/ha, postemergence; visual injury after approximately 10 d; 0 to 100 scale (0 no effect, 100 complete control); read-out: Plant response rating, Pigweed. In outline: as §2
In experiment [13] the test system is Kochia (Kochia scoparia). The experiment can be described thus: Test A postemergence. The following applies: Bassia scoparia, post-emergence, 240 h, 125 g ai/ha, postemergence; visual injury after approximately 10 d; 0 to 100 scale (0 no effect, 100 complete control); read-out: Plant response rating, Kochia. In outline:
as §2

The test system of experiment [14] is giant foxtail (Setaria faberii). The experiment can be described thus: Test A postemergence. The note with it: Setaria faberi, post-emergence, 240 h, 125 g ai/ha, postemergence; visual injury after approximately 10 d; 0 to 100 scale (0 no effect, 100 complete control); read-out: Plant response rating, Foxtail, Giant. The essentials:
as §2

The mark [15] stands for this setting: preemergence, read-out: Plant response rating, Ryegrass, Italian.
[16] abbreviates: preemergence, 0 to 100 scale, 0 = no effect, 100 = complete control, read-out: Plant response rating, Ryegrass, Italian.
Where [17] appears, read: preemergence, read-out: Plant response rating, Pigweed.
Setting [18] is: preemergence, 0 to 100 scale, 0 = no effect, 100 = complete control, read-out: Plant response rating, Pigweed.
Where [19] appears, read: preemergence, read-out: Plant response rating, Kochia.
Setting [20] is: preemergence, 0 to 100 scale, 0 = no effect, 100 = complete control, read-out: Plant response rating, Kochia.
Where [21] appears, read: preemergence, read-out: Plant response rating, Ragweed.
Setting [22] is: preemergence, 0 to 100 scale, 0 = no effect, 100 = complete control, read-out: Plant response rating, Ragweed.
The mark [23] stands for this setting: preemergence, read-out: Plant response rating, Foxtail, Giant.
Where [24] appears, read: preemergence, 0 to 100 scale, 0 = no effect, 100 = complete control, read-out: Plant response rating, Foxtail, Giant.
Where [25] appears, read: preemergence, read-out: Plant response rating, Barnyardgrass.
[26] abbreviates: preemergence, 0 to 100 scale, 0 = no effect, 100 = complete control, read-out: Plant response rating, Barnyardgrass.

SMILES strings stand for the structures. Where two headings read alike, the source gives them in different places.

Regarding `O=C1NC[C@H](c2cccc3c2OC(F)(F)O3)[C@H]1C(=O)Nc1ccccc1F` [Compound 754], the pest or weed control at 250 g/ha with rice (Oryra sativa) was 0%; in experiment [1], 40%; in experiment [2] it was 0%; in experiment [3] it was 0%. Moreover, the pest or weed control at 125 g/ha stood at 0% in experiment [4] (setting [15]); 0% in [5] (setting [17]); 0% in the experiment with Kochia (Kochia scoparia) [6] (setting [19]); 0% in experiment [7] (setting [21]); 70% in experiment [8] (setting [23]); 80% in experiment [9] (setting [25]). Moreover, the pest or weed control at 125 g/ha in experiment [10] was 0%; in experiment [12], 0%; in the experiment on Kochia (Kochia scoparia) [13], 0%; in experiment [14] it was 60%. In addition, the pest or weed control at 500 g/ha in experiment [4] (setting [16]) was found to be 0%; in experiment [5] (setting [18]), 0%; in the experiment with Kochia (Kochia scoparia) [6] (setting [20]) it was 0%; in experiment [7] (setting [22]) it was 0%; in [8] (setting [24]), 90%; in [9] (setting [26]), 100%. In [11], the plant injury at 125 g/ha turned out to be 0%.

For the compound `O=C1NC[C@H](c2ccc(C(F)(F)F)cc2)[C@H]1C(=O)Nc1ccccc1C1CC1` [Compound 746], the pest or weed control at 250 g/ha in the experiment on rice (Oryra sativa) amounted to 0%; in [1] it was 95%; in [2], 0%; in experiment [3], 0%. In addition, the pest or weed control at 125 g/ha came out at 0% in experiment [4] (setting [15]); 0% in [5] (setting [17]); 0% in the experiment with Kochia (Kochia scoparia) [6] (setting [19]); 0% in experiment [7] (setting [21]); 80% in [8] (setting [23]); 0% in experiment [9] (setting [25]). The pest or weed control at 125 g/ha in experiment [10] turned out to be 50%; in experiment [12] it was 0%; in the experiment with Kochia (Kochia scoparia) [13], 0%; in experiment [14], 50%. Besides, the pest or weed control at 500 g/ha in experiment [4] (setting [16]) is 40%; in [5] (setting [18]) it was 20%; with Kochia (Kochia scoparia) [6] (setting [20]) it was 60%; in [7] (setting [22]) it was 0%; in experiment [8] (setting [24]) it was 90%; in [9] (setting [26]), 0%. In [11], the plant injury at 125 g/ha amounted to 0%.

As to `CC(F)(F)c1cccc([C@H]2CNC(=O)[C@@H]2C(=O)Nc2ccc(F)cc2F)c1` [Compound 781], the pest or weed control at 250 g/ha in the experiment with rice (Oryra sativa) turned out to be 0%; in experiment [1] it was 100%; in experiment [2] it was 0%; in [3] it was 65%. The pest or weed control at 125 g/ha is 20% in experiment [4] (setting [15]); 0% in experiment [5] (setting [17]); 50% in the experiment with Kochia (Kochia scoparia) [6] (setting [19]); 0% in experiment [7] (setting [21]); 90% in [8] (setting [23]); 80% in [9] (setting [25]). The pest or weed control at 125 g/ha worked out at 60% in experiment [10], 0% in experiment [12], 0% in the experiment on Kochia (Kochia scoparia) [13] and 80% in experiment [14]. For the same compound, the pest or weed control at 500 g/ha amounted to 50% in experiment [4] (Preemergence, visual injury vs untreated controls after approximately 10 d, read-out: Ryegrass, Italian plant response rating (0 to 100 scale where 0 is no effect and 100 is complete control)); 70% in experiment [5] (Preemergence, visual injury vs untreated controls after approximately 10 d, read-out: Pigweed plant response rating (0 to 100 scale where 0 is no effect and 100 is complete control)); 90% with Kochia (Kochia scoparia) [6] (Preemergence, visual injury vs untreated controls after approximately 10 d, read-out: Kochia plant response rating (0 to 100 scale where 0 is no effect and 100 is complete control)); 0% in [7] (Preemergence, visual injury vs untreated controls after approximately 10 d, read-out: Ragweed plant response rating (0 to 100 scale where 0 is no effect and 100 is complete control)); 100% in experiment [8] (Preemergence, visual injury vs untreated controls after approximately 10 d, read-out: Foxtail, Giant plant response rating (0 to 100 scale where 0 is no effect and 100 is complete control)); 100% in experiment [9] (Preemergence, visual injury vs untreated controls after approximately 10 d, read-out: Barnyardgrass plant response rating (0 to 100 scale where 0 is no effect and 100 is complete control)). The plant injury at 125 g/ha in experiment [11] turned out to be 50%.

On to `CCc1cc(CC)cc([C@H]2CN(C)C(=O)[C@@H]2C(=O)Nc2ccccc2C(F)(F)F)c1` [Compound 737], for which the pest or weed control at 250 g/ha (in the experiment with rice (Oryra sativa); in experiment [1]; in experiment [2]; in [3]) was 0% throughout. For the same compound, the pest or weed control at 125 g/ha in experiment [4] (setting [15]) is 40%; in experiment [5] (setting [17]), 0%; in the experiment with Kochia (Kochia scoparia) [6] (setting [19]) it was 40%; in experiment [7] (setting [21]), 0%; in [8] (setting [23]), 90%; in experiment [9] (setting [25]) it was 70%. For the same compound, the pest or weed control at 125 g/ha in experiment [10] came to 30%; in [12], 20%; with Kochia (Kochia scoparia) [13], 0%; in [14] it was 70%. Besides, the pest or weed control at 500 g/ha was determined as 70% in experiment [4] (setting [16]); 0% in experiment [5] (setting [18]); 50% in the experiment on Kochia (Kochia scoparia) [6] (setting [20]); 0% in experiment [7] (setting [22]); 90% in [8] (setting [24]); 80% in [9] (setting [26]). For the same compound, the plant injury at 125 g/ha in experiment [11] came to 40%.
